Test results published in patent US12447156B2, “Treating progressive familial intrahepatic cholestasis (PFIC) with IBAT inhibitors” (ALBIREO AB, priority 2020, dated 2025).
Several values for one entry are separate records, joined by “and”; a condition that tells them apart may be missing. Identical values can stand only once.

Tested on: children with PFIC1 or PFIC2
Assay: PEDFIC 1 phase 3 randomized, double-blind, placebo-controlled trial: efficacy (pruritus, serum bile acids, hepatic parameters, growth, sleep)
Type: in vivo, human
Details: for Proportion of Positive Pruritus Assessments Over the Treatment Period, Mean (SE) / Proportion of Positive Pruritus Assessments, Mean Difference vs Placebo (least squares means): 24 weeks; for least squares mean treatment difference vs placebo in proportion of positive pruritus assessments / least square mean proportion of positive pruritus assessments at the patient level: over 24 weeks; for least square mean proportion of positive pruritus assessments at the patient level: ObsRO
Method: Odevixibat is an orally administered, potent, luminally restricted, selective IBAT inhibitor in development to treat cholestatic liver diseases. In this phase 3, randomized, 24-week trial (PEDFIC 1), the efficacy and safety of odevixibat versus placebo was evaluated in children with PFIC1 or PFIC2. The efficacy of odevixibat in patients with PFIC was evaluated a 24-week, randomized, double-blind, placebo-controlled trial conducted in 62 patients with a confirmed diagnosis of PFIC Type 1 or Type 2 (NCT03566238; European Union (EU), 2017-002338-21; PEDFIC1; FIG. 1). Patients were randomized 1:1:1 to placebo, or 40 or 120 μg/kg odevixibat and stratified by PFIC Type (1 or 2) and age (6 months to 5 years, 6 to 12 years, and 13 to ≤18 years). Patients with pathologic variations of the ABCB11 gene that predict complete absence of the bile salt export pump (BSEP) protein and those with alanine aminotransferase (ALT)>10×ULN or bilirubin>5×ULN were excluded from the study.
The study consisted of a screening phase and parallel-design treatment period (FIG. 1). Two screening visits occurred: the first took place during days −56 to −35 prior to the first dose of study drug and the second occurred during days −28 to −7. On day 0, all eligible patients were randomized 1:1:1 to oral, once-daily placebo, 40 μg/kg/day odevixibat, or 120 μg/kg/day odevixibat. After written informed consent was obtained, an 8-digit patient identification number was assigned by the Interactive Web Response System (IWRS). The first two digits denoted country, followed by a 3-digit site number, and a 3-digit patient sequence number. The randomization codes were computer generated by a biostatistician at ICON Clinical Research Ltd (Dublin, Ireland) and kept by an unblinded statistician at Firma Clinical Research (Chicago, IL, USA), independent from the project team. Patients deemed eligible for randomization were assigned a unique 4 digit randomization number by the IWRS that identified which treatment was allocated to the patient. Randomization was done in a block size of six and stratified according to PFIC type 1 or 2 and age group (6 months to 5 years, 6 to 12 years, and 13 to ≤18 years) to ensure approximate balance between dose schemes (1:1:1). A separate randomization list was prepared for the patients who had taken part in study A4250-003, regardless of stratification. Randomization codes were assigned sequentially as patients became eligible for randomization. The IWRS system assigned a study drug number(s) corresponding to the randomization arm at each dispensing visit. A 5-digit study drug number identified study drug packs and was detailed on the study drug label.
Treatment was dispensed during on-site clinic visits, and patients or caregivers were instructed to take or administer the study drug at home each morning, either as an intact capsule(s) (swallowed with a glass of water and with food) or sprinkled on soft, room-temperature food (e.g., applesauce, followed by water). The double-blind PEDFIC 1 treatment period lasted 24 weeks.
Children (aged 0.5 to 18 years) with genetic confirmation of biallelic pathogenic mutations in the ATP8B1 (i.e., PFIC1) or ABCB11 genes (i.e., PFIC2), elevated serum bile acids (≥100 μmol/L), history of significant pruritus, and an average caregiver-reported observed scratching score ≥2 (calculated from daily electronic diary [eDiary] entries) in the 14 days prior to randomization, were eligible for inclusion. Additionally, caregivers or age-appropriate patients (≥8 years of age) agreed to use the eDiary device to record symptoms. Patients with two mutations in ABCB11 predicting a complete absence of functional bile salt export pump protein were excluded.
Two different primary endpoints were evaluated. The first primary endpoint in this study was the proportion of positive pruritus assessments at the patient level over the 24-week treatment period based on an observer-reported outcome (ObsRO) instrument. […]

## CCCCC1(CCCC)CN(c2ccccc2)c2cc(SC)c(OCC(=O)N[C@@H](C(=O)N[C@@H](CC)C(=O)O)c3ccc(O)cc3)cc2S(=O)(=O)N1 [Odevixibat, 1,1-dioxo-3,3-dibutyl-5-phenyl-7-methylthio-8-(N-{(R)-α-[N-((S)-1-carboxypropyl)carbamoyl]-4-hydroxybenzyl}carbamoylmethoxy)-2,3,4,5-tetrahydro-1,2,5-benzothiadiazepine]
PEDFIC 1, 40 μg/kg/day
  Patients with Reduction in Serum Bile Acids, % Difference vs Placebo: 44.1%
  mean percentage difference vs placebo in patients who met the serum bile acid reduction endpoint: 44.1%
  Proportion of Positive Pruritus Assessments, Mean Difference vs Placebo (least squares means): 28.23 (9.182)
  least squares mean treatment difference vs placebo in proportion of positive pruritus assessments: 28.2%
  least square mean proportion of positive pruritus assessments at the patient level: 58%
PEDFIC 1, 40 μg/kg/day (n = 23)
  Proportion of Positive Pruritus Assessments Over the Treatment Period, Mean (SE): 58.31 (6.205)
PEDFIC 1, 40 μg/kg/day, n 14
  Autotaxin, change from baseline to week 24, mean: -1698 ng/mL
PEDFIC 1, 40 μg/kg/day, n 15
  APRI, change from baseline to week 24, mean: −0.1
  C4 (7alpha-hydroxy-4-cholesten-3-one), change from baseline to week 24, mean: 15.7 ng/mL
  FIB-4, change from baseline to week 24, mean: 0.0
  PELD/MELD, change from baseline to week 24, mean: −2.4
PEDFIC 1, 40 μg/kg/day, n 17
  GGT, change from baseline to week 24, mean (SE): −3 (2) U/L
  Serum AST, change from baseline to week 24, mean: −37 U/L
  Total bilirubin, change from baseline to week 24, mean: -1.4 mg/dL
PEDFIC 1, 40 μg/kg/day, n = 23
  Proportion of Patients with Reduction in Serum Bile Acids at End of Treatment: 10 (43.5) n (%)
PEDFIC 1, 40 μg/kg/day, week 24
  proportion of patients achieving a serum bile acid response (≥70% reduction or ≤70 μmol/L): 44%
PEDFIC 1, 40 μg/kg/day, placebo 0.10 (0.102)
  mean (SE) change from baseline to end of treatment in height z-score: 0.29 (0.106)
PEDFIC 1, 40 μg/kg/day, placebo 3.7 (4.95)
  mean (SE) change from baseline to end of treatment in ALT: −27.9 (17.97) U/L
PEDFIC 1, 40 μg/kg/day, placebo −5.5%
  mean change from baseline to end of treatment in percentage of days sleeping with the caregiver: −49.4%
PEDFIC 1, 40 μg/kg/day, placebo −7.6%
  mean change from baseline to end of treatment in percentage of days requiring soothing: −51.5%
PEDFIC 1, 120 μg/kg/day
  Patients with Reduction in Serum Bile Acids, % Difference vs Placebo: 21.6%
  mean (SE) change from baseline to end of treatment in ALT: −25.3 (22.47) U/L
  mean (SE) change from baseline to end of treatment in height z-score: 0.15 (0.124)
  mean change from baseline to end of treatment in percentage of days requiring soothing: −34.9%
  mean change from baseline to end of treatment in percentage of days sleeping with the caregiver: −33.1%
  mean percentage difference vs placebo in patients who met the serum bile acid reduction endpoint: 21.6%
  Proportion of Positive Pruritus Assessments, Mean Difference vs Placebo (least squares means): 21.71 (9.892)
  least squares mean treatment difference vs placebo in proportion of positive pruritus assessments: 21.7%
  least square mean proportion of positive pruritus assessments at the patient level: 52%
PEDFIC 1, 120 μg/kg/day (n = 19)
  Proportion of Positive Pruritus Assessments Over the Treatment Period, Mean (SE): 47.69 (8.110)
PEDFIC 1, 120 μg/kg/day, n 8
  APRI, change from baseline to week 24, mean: 0.0
  FIB-4, change from baseline to week 24, mean: 0.1
PEDFIC 1, 120 μg/kg/day, n 12
  Autotaxin, change from baseline to week 24, mean: -1018 ng/mL
  C4 (7alpha-hydroxy-4-cholesten-3-one), change from baseline to week 24, mean: 15.8 ng/mL
PEDFIC 1, 120 μg/kg/day, n 14
  PELD/MELD, change from baseline to week 24, mean: −1.1
PEDFIC 1, 120 μg/kg/day, n 15
  GGT, change from baseline to week 24, mean (SE): −1 (1) U/L
  Serum AST, change from baseline to week 24, mean: −27 U/L
  Total bilirubin, change from baseline to week 24, mean: -1.1 mg/dL
PEDFIC 1, 120 μg/kg/day, n = 19
  Proportion of Patients with Reduction in Serum Bile Acids at End of Treatment: 4 (21.1) n (%)
PEDFIC 1, 120 μg/kg/day, week 24
  proportion of patients achieving a serum bile acid response (≥70% reduction or ≤70 μmol/L): 21%
PEDFIC 1, 24 weeks
  percentage of days seeing blood due to scratching, number of awakenings, percentage of days taking medications to induce sleep: odevixibat vs placebo: no clear differences
PEDFIC 1, 24 weeks of treatment
  reduction of autotaxin levels: approximately half
PEDFIC 1, Total odevixibat
  Patients with Reduction in Serum Bile Acids, % Difference vs Placebo: 30.7%
  Proportion of Positive Pruritus Assessments, Mean Difference vs Placebo (least squares means): 24.97 (8.240)
PEDFIC 1, Total odevixibat (N = 42), placebo 28.74 (5.209)
  Proportion of Positive Pruritus Assessments Over the Treatment Period, Mean (SE): 53.51 (5.006)
PEDFIC 1, Total odevixibat (N = 42), placebo 0
  Proportion of Patients with Reduction in Serum Bile Acids at End of Treatment: 14 (33.3) n (%)
PEDFIC 1, all 62 patients, during the study
  patients undergoing surgical interruption of the enterohepatic circulation or liver transplantation: None
PEDFIC 1, all doses, baseline to weeks 21 through 24, placebo −0.25 (0.2)
  mean (SE) change from baseline in ObsRO pruritus score (mean monthly): −1.11 (0.2)
PEDFIC 1, all doses, n 23
  APRI, change from baseline to week 24, mean: −0.1
  FIB-4, change from baseline to week 24, mean: 0.0
PEDFIC 1, all doses, n 26
  Autotaxin, change from baseline to week 24, mean: -1384 ng/mL
PEDFIC 1, all doses, n 27
  C4 (7alpha-hydroxy-4-cholesten-3-one), change from baseline to week 24, mean: 15.7 ng/mL
PEDFIC 1, all doses, n 29
  PELD/MELD, change from baseline to week 24, mean: −1.8
PEDFIC 1, all doses, n 32
  GGT, change from baseline to week 24, mean (SE): −2 (1) U/L
  Serum AST, change from baseline to week 24, mean: −32 U/L
  Total bilirubin, change from baseline to week 24, mean: -1.3 mg/dL
PEDFIC 1, all doses, placebo 30%
  least square mean proportion of positive pruritus assessments at the patient level: 55% and 55.1%
PEDFIC 1, all doses, week 24, placebo 0
  proportion of patients achieving a serum bile acid response (≥70% reduction or ≤70 μmol/L): 33% and 33.3%
PEDFIC 1, all doses, week 24, placebo 3.7 (5.0)
  mean (SE) change in serum ALT: −26.7 (14.0) U/L
PEDFIC 1, all doses, week 24, placebo 11%
  proportion of patients with clinically meaningful change in pruritus (≥1-point decrease, mean monthly score): 43%
PEDFIC 1, all doses, weeks 22 through 24 / end of treatment, placebo +13.1
  mean change in serum bile acid levels: -114.3 µmol/L
PEDFIC 1, all doses, placebo −0.25, scale 0-4
  mean pruritus score change from baseline to end of treatment: −1.13
PEDFIC 1, odevixibat overall, baseline to weeks 21 to 24, placebo −0.49
  mean change in daytime tiredness score (0-4): −0.99
PEDFIC 1, odevixibat overall, weeks 21 to 24, placebo −3%
  mean change from baseline in percentage of days needing help falling asleep: −43%
PEDFIC 1, odevixibat overall, weeks 21 to 24, placebo −6%
  mean change from baseline in percentage of days sleeping with the caregiver: −42%
PEDFIC 1, odevixibat overall, weeks 21 to 24, placebo −8%
  mean change from baseline in percentage of days with soothing: −44%
PEDFIC 1, patients treated with odevixibat, placebo 0.1 (0.1)
  mean (SE) change from baseline to week 24 in weight Z-score: 0.2 (0.1)
PEDFIC 1, patients treated with odevixibat, placebo −0.2 (0.1)
  mean (SE) change from baseline to week 24 in height Z-score: 0.0 (0.1)
PEDFIC 1, patients with PFIC1, week 24
  proportion of patients who met serum bile acid response criteria: 17%
PEDFIC 1, patients with PFIC2, week 24
  proportion of patients who met serum bile acid response criteria: 40%
